Legend:
EP3 receptor [1] = biological target: T1, EP3 receptor (Homo sapiens, UniProt P43115); assay: CHO cell cAMP assay (forskolin and sulprostone stimulated, HTRF); format: cell-based; details: CHO cells; sulprostone 700 nM (EC80) and FSK 2 μM (EC70), 37° C. for 30 minutes; read-out: CHO_cAMP IC50
T1 construct: purchased Millipore HTS092M
T1 sequence (P43115 1-390): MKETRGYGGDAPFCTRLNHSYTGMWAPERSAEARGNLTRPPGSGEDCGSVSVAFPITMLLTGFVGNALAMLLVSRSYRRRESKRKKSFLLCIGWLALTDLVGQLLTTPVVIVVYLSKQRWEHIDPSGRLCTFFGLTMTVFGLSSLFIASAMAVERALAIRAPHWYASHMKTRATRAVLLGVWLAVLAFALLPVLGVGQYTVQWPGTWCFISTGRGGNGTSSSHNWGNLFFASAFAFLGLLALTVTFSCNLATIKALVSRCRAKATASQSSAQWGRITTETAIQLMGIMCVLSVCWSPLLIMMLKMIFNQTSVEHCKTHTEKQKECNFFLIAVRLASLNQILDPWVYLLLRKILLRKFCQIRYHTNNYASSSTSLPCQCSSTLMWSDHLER
Method: For detection, a homogeneous competitive immunoassay (Time Resolved Fluorescence Energy Transfer (hTR-FRET)) was used.
Cells (6K cells per well) were plated in Poly-D-Lysine coated plates the day before the assay was to be run and were incubated at 37° C. […] At the start of the assay the buffer was removed from the cells and replaced with buffer containing test compound(s). Sulprostone at an EC80 dose (700 nM) and FSK at an EC70 dose (2 μM) were added to initiate the reaction (37° C. for 30 minutes).
FSK increases cAMP production and sulprostone decreases cAMP production produced by FSK. In this assay, EP3 antagonists will increase the cAMP to the level of cAMP generated by FSK alone.
Approximately one hour later the plates were read on an Envision (Perkin Elmer) in HTRF mode.
NSP, NSN, NSsample were converted to nM cAMP using the following equation: […]
IC50 values were determined from a […] (Hill equation) of a single 11-point compound dosing.

EP3 receptor [2] = biological target: T1, EP3 receptor; assay: [3H]-PGE2 binding assay (EP3 competition binding); details: read-out: [3H]-PGE2 Binding Ki
Method: EP3 competition binding was determined using the following materials and experimental conditions:
Beads=Perkin Elmer RPNQ0001
EP3 membrane=Millipore HTS092M
Membrane concentration=2 μg/well
Beads concentration=0.25 mg/well
[3H]-PGE2=2 nM; DMSO—0.1%
Binding buffer=50 mM Tris, 10 mM MgCl2, 1 mM • EDTA, PH 7.4.
The binding buffer was removed from refrigeration (@ 4° C.) and allowed to warm to room temperature. Test compound (@ stock concentration of […] in DMSO) was serial dilutes (1:3) with 100% DMSO using Echo plate. Diluted test compound (30 nL) was dispensed to the 384-well assay plate (using Echo 550 Labcyte System). To each well was then added assay buffer (5 μl) and each well was spun. Beads were weighed out, dissolved in assay buffer to a concentration of 0.25 mg/15 μl. Original membrane was diluted with assay buffer to a concentration of 2 μg/5 μl. […] To each test well were then added diluted [3H]-PGE2 (5 μl), diluted membrane (5 μl), and dissolved beads (15 μl). The plate was equilibrated at room temperature on a plate shaker for 2 hours and then read with a TOPCOUNT scintillation plate reader. Results were analyzed using a Prism program with non-linear regression, one-site fit for Ki.

## CO/N=C1\NC(=O)C(c2ccc(-c3ccc4cccc(F)c4c3)[nH]c2=O)(C(C)C)N1 (stereo not shown) [compound 237, (Z)-6-(8-fluoronaphthalen-2-yl)-3-(4-isopropyl-2-(methoxyimino)-5-oxoimidazolidin-4-yl)pyridin-2(1H)-one]
EP3 receptor [1]
  IC50: 12 nM
EP3 receptor [2]
  Ki: 4 nM

## CC(C)C(C(=O)NC1CCSCC1)c1ccc(-c2ccc3cccc(F)c3c2)[nH]c1=O (stereo not shown) [compound 183, 2-(6-(8-fluoronaphthalen-2-yl)-2-oxo-1,2-dihydropyridin-3-yl)-3-methyl-N-(tetrahydro-2H-thiopyran-4-yl)butanamide]
EP3 receptor [1]
  IC50: 1 nM
EP3 receptor [2]
  Ki: 3 nM

## CCn1ncc2c(F)cc(-c3ccc(C(CC)(CC)CC4CCNC4=O)c(=O)[nH]3)cc21 (stereo not shown) [compound 40, 6-(1-ethyl-4-fluoro-1H-indazol-6-yl)-3-(3-((2-oxopyrrolidin-3-yl)methyl)pentan-3-yl)pyridin-2(1H)-one]
EP3 receptor [1]
  IC50: 44 nM
EP3 receptor [2]
  Ki: 11 nM

## CC(C)C(/C=C1\OC(=O)NC1=O)c1ccc(-c2ccc3cccc(C(F)(F)F)c3c2)[nH]c1=O (stereo not shown) [compound 143, 5-(3-methyl-2-(2-oxo-6-(8-(trifluoromethyl)naphthalen-2-yl)-1,2-dihydropyridin-3-yl)butylidene)oxazolidine-2,4-dione]
EP3 receptor [1]
  IC50: 734 nM
EP3 receptor [2]
  Ki: 308 nM

## CC(C)C(CC(=O)NCCN(C)C)c1ccc(-c2ccc3cccc(F)c3c2)[nH]c1=O (stereo not shown) [compound 259, N-(2-(dimethylamino)ethyl)-3-(6-(8-fluoronaphthalen-2-yl)-2-oxo-1,2-dihydropyridin-3-yl)-4-methylpentanamide]
EP3 receptor [1]
  IC50: 242 nM
EP3 receptor [2]
  Ki: 28 nM

## CC(C)C(/C=C1\OC(=O)NC1=O)c1ccc(-c2cc(F)c3cnn(C4CCCC4)c3c2)[nH]c1=O (stereo not shown) [compound 124, (Z)-5-(2-(6-(1-cyclopentyl-4-fluoro-1H-indazol-6-yl)-2-oxo-1,2-dihydropyridin-3-yl)-3-methylbutylidene)oxazolidine-2,4-dione]
EP3 receptor [1]
  IC50: 19200 nM
EP3 receptor [2]
  Ki: 202 nM

## CCn1cc2ccc(-c3ccc(C(CC4OC(=O)NC4=O)C(C)C)c(=O)[nH]3)cc2n1 (stereo not shown) [compound 120, 5-(2-(6-(2-ethyl-2H-indazol-6-yl)-2-oxo-1,2-dihydropyridin-3-yl)-3-methylbutyl)oxazolidine-2,4-dione]
EP3 receptor [1]
  IC50: > 20000 nM
EP3 receptor [2]
  Ki: > 10000 nM

## CCn1ncc2c(F)c(-c3ccc(C(/C=C4/OC(=O)NC4=O)(CC)CC)c(=O)[nH]3)ccc21 [compound 12, (E)-5-(2-ethyl-2-(6-(1-ethyl-4-fluoro-1H-indazol-5-yl)-2-oxo-1,2-dihydropyridin-3-yl)butylidene)oxazolidine-2,4-dione]
EP3 receptor [1]
  IC50: > 20000 nM
EP3 receptor [2]
  Ki: 1350 nM

## CC(C)/C(=C1\OC(=O)NC1=O)c1ccc(-c2ccc3cccc(F)c3c2)[nH]c1=O [compound 304, (E)-5-(1-(6-(8-fluoronaphthalen-2-yl)-2-oxo-1,2-dihydropyridin-3-yl)-2-methylpropylidene)oxazolidine-2,4-dione]
EP3 receptor [1]
  IC50: 680 nM
EP3 receptor [2]
  Ki: 270 nM

## CC(C)C(O)(C(N)=O)c1ccc(-c2ccc3c(c2)OCCN3C)[nH]c1=O (stereo not shown) [compound 225, 2-hydroxy-3-methyl-2-(6-(4-methyl-3,4-dihydro-2H-benzo[b][1,4]oxazin-7-yl)-2-oxo-1,2-dihydropyridin-3-yl)butanamide]
EP3 receptor [1]
  IC50: 4570 nM
EP3 receptor [2]
  Ki: 343 nM

## O=C1NC(=O)/C(=C/C(c2ccc(-c3ccc4cccc(F)c4c3)[nH]c2=O)C2CC2)O1 (stereo not shown) [compound 103, (Z)-5-(2-cyclopropyl-2-(6-(8-fluoronaphthalen-2-yl)-2-oxo-1,2-dihydropyridin-3-yl)ethylidene)oxazolidine-2,4-dione]
EP3 receptor [1]
  IC50: 33 nM
EP3 receptor [2]
  Ki: 22 nM

## CC(=C1OC(=O)NC1=O)C(c1ccc(-c2ccc3cccc(F)c3c2)[nH]c1=O)C(C)C (stereo not shown) [compound 84]
EP3 receptor [1]
  IC50: 26 nM
EP3 receptor [2]
  Ki: 7 nM

## Cc1cc(C(CC2OC(=O)NC2=O)C(C)C)c(=O)[nH]c1-c1ccc2cccc(F)c2c1 (stereo not shown) [Compound #112]
EP3 receptor [1]
  IC50: 212 nM
EP3 receptor [2]
  Ki: 57 nM

## CC(C)/C(Cc1ccc(-c2ccc3cccc(F)c3c2)[nH]c1=O)=C1/OC(=O)NC1=O [Compound #306, (E)-5-(1-(6-(8-fluoronaphthalen-2-yl)-2-oxo-1,2-dihydropyridin-3-yl)-3-methylbutan-2-ylidene)oxazolidine-2,4-dione]
EP3 receptor [1]
  IC50: 111 nM
EP3 receptor [2]
  Ki: 54 nM

## CCn1cnc2ccc(-c3ccc(C(C=C4OC(=O)NC4=O)C(C)C)c(=O)[nH]3)c(F)c21 (stereo not shown) [compound 91, 5-(2-(6-(3-ethyl-4-fluoro-3H-benzo[d]imidazol-5-yl)-2-oxo-1,2-dihydropyridin-3-yl)-3-methylbutylidene)oxazolidine-2,4-dione]
EP3 receptor [1]
  IC50: > 20000 nM
EP3 receptor [2]
  Ki: > 10000 nM

## CC(C)S(=O)(=O)N1CCC(c2ccc(-c3ccc4ccccc4c3)[nH]c2=O)CC1 [compound 200, 3-(1-(isopropylsulfonyl)piperidin-4-yl)-6-(naphthalen-2-yl)pyridin-2(1H)-one]
EP3 receptor [1]
  IC50: 1250 nM
EP3 receptor [2]
  Ki: 38 nM

## CCn1ncc2c(F)cc(-c3ccc(C4CCC5(CCCNC5=O)CC4)c(=O)[nH]3)cc21 (stereo not shown) [compound 196, 9-(6-(1-ethyl-4-fluoro-1H-indazol-6-yl)-2-oxo-1,2-dihydropyridin-3-yl)-2-azaspiro[5.5]undecan-1-one]
EP3 receptor [1]
  IC50: 87 nM
EP3 receptor [2]
  Ki: 8 nM

## O=c1[nH]c(-c2ccc3ccccc3c2)ccc1C1CCc2n[nH]cc2C1 (stereo not shown) [compound 195, 6-(naphthalen-2-yl)-3-(4,5,6,7-tetrahydro-2H-indazol-5-yl)pyridin-2(1H)-one]
EP3 receptor [1]
  IC50: 286 nM
EP3 receptor [2]
  Ki: 42 nM

## O=C1NC(=O)C(CC2(c3ccc(-c4ccc5cccc(F)c5c4)[nH]c3=O)CCCC2)O1 (stereo not shown) [compound 7, 5-((1-(6-(8-fluoronaphthalen-2-yl)-2-oxo-1,2-dihydropyridin-3-yl)cyclopentyl)methyl) oxazolidine-2,4-dione]
EP3 receptor [1]
  IC50: 149 nM
EP3 receptor [2]
  Ki: 39 nM

## CC(C)C(c1nnn[nH]1)c1ccc(-c2ccc3ccccc3c2)[nH]c1=O (stereo not shown) [compound 61, 3-(2-Methyl-1-(1H-tetrazol-5-yl)propyl)-6-(naphthalen-2-yl)pyridin-2(1H)-one]
EP3 receptor [1]
  IC50: 376 nM
EP3 receptor [2]
  Ki: 43 nM

## CC(C)C(Cc1ccc(-c2ccc3cccc(F)c3c2)[nH]c1=O)C1OC(=O)NC1=O (stereo not shown) [Compound #308, 5-(1-(6-(8-fluoronaphthalen-2-yl)-2-oxo-1,2-dihydropyridin-3-yl)-3-methylbutan-2-yl)oxazolidine-2,4-dione]
EP3 receptor [1]
  IC50: 210 nM
EP3 receptor [2]
  Ki: 46 nM

## CC(C)C(CC(=O)Nc1nccs1)c1ccc(-c2ccc3cccc(F)c3c2)[nH]c1=O (stereo not shown) [compound 254, 3-(6-(8-fluoronaphthalen-2-yl)-2-oxo-1,2-dihydropyridin-3-yl)-4-methyl-N-(thiazol-2-yl)pentanamide]
EP3 receptor [1]
  IC50: 2740 nM
EP3 receptor [2]
  Ki: 344 nM

## CC(C)C(C(=O)NCCOCCN(C)C)c1ccc(-c2ccc3cccc(F)c3c2)[nH]c1=O (stereo not shown) [compound 233, N-(2-(2-(dimethylamino)ethoxy)ethyl)-2-(6-(8-fluoronaphthalen-2-yl)-2-oxo-1,2-dihydropyridin-3-yl)-3-methylbutanamide]
EP3 receptor [1]
  IC50: 325 nM
EP3 receptor [2]
  Ki: 15 nM

## CC(C)C(Cc1ccc(-c2ccc3cccc(F)c3c2)[nH]c1=O)C(N)=O (stereo not shown) [compound 253, 2-((6-(8-fluoronaphthalen-2-yl)-2-oxo-1,2-dihydropyridin-3-yl)methyl)-3-methylbutanamide]
EP3 receptor [1]
  IC50: 59 nM
EP3 receptor [2]
  Ki: 12 nM

## CCn1ncc2c(F)cc(-c3ccc(C(CC)(CC)c4ncc[nH]4)c(=O)[nH]3)cc21 [compound 31, 6-(1-ethyl-4-fluoro-indazol-6-yl)-3-[1-ethyl-1-(1H-imidazol-2-yl)propyl]-1H-pyridin-2-one]
EP3 receptor [1]
  IC50: 482 nM
EP3 receptor [2]
  Ki: 37 nM

## CN(C)C1=NC(C)(c2ccc(-c3ccc4ccccc4c3)[nH]c2=O)CN1 (stereo not shown) [compound 289, 3-[2-(dimethylamino)-4-methyl-4,5-dihydro-1H-imidazol-4-yl]-6-(naphthalen-2-yl)-1,2-dihydropyridin-2-one]
EP3 receptor [1]
  IC50: > 20000 nM
EP3 receptor [2]
  Ki: 1800 nM
